The test system of this test is Male C57BL/6/Bkl mice. Nature of the test: Forced swimming test in mice. The test is classed as in vivo. The protocol:
Male C57BL/6/Bkl mice (Scanbur BK AB, Sweden) weighing 20-25 g were used. Mice were kept 10 per cage (21×37×15 cm) in an animal house at 20° C. in a 12 h light/dark cycle (light on at 7.00 a.m.). Tap water and food pellets were available ad libitum. The animals were kept for at least two weeks in the animal colony before entering experiments. The measurement of locomotor activity, and forced swimming test were carried out consecutively 45 and 55 min after treatment with study compounds, according to Volke V, Wegener G, Bourin […]. […] Behavioural Brain Research 2003; 140: 141-147. In a separate experiment arginase product L-ornithine or saline was injected 15 min prior to L-norvaline. The Forced Swimming test was performed as described by Porsolt et al Porsolt R D, Bertin A, Jalfre M. Behavioral despair in mice: a primary screening test for antidepressants. Arch Int Pharmacodyn Ther 1977; 229: 327-336. A glass cylinder with a diameter of 12 cm was filled with 8 cm water at 25° C. An animal was put into the water and its behaviour was videotaped during 6 min. An observer blind to treatment protocol counted the immobility time during the last 4 min of the 6 min test.

Setting [1] is: Example 2, separate experiment (FIG. 2), 500 mg/kg each, L-ornithine or saline injected 15 min prior to L-norvaline, saline 199 sec.

Turning to `CCC[C@H](N)C(=O)O` [L-norvaline], the immobility time (20 mg/kg i.p., 55 min after treatment, last 4 min of 6 min test, control 220 sec (FIG. 1)) was determined as 146 s; the immobility time (100 mg/kg i.p., 55 min after treatment, last 4 min of 6 min test, control 220 sec (FIG. 1)) stood at 107 s; the immobility time (500 mg/kg i.p., 55 min after treatment, last 4 min of 6 min test, control 220 sec (FIG. 1)) worked out at 96 s; the immobility time under setting [1] was determined as 127 s.
For `NCCC[C@H](N)C(=O)O` [L-ornithine], the immobility time under setting [1] was found to be 214 s.
Where the note is “400 mg/kg i.p., separate experiment, control 219 sec”, difluoromethylornithine [DFMO] yielded an immobility time of 191 s. Also, the “effect on immobility time” value (lower doses 10-100 mg/kg i.p.) was “ineffective”.

These data come from patent publication US20110318271A1, “Arginase Inhibitors for the Treatment of Depression” (UNIVERSITY OF TARTU, priority 2008, published 2011).
